From patent EP2208725A1, “Novel specific inhibitors of ubiquitin specific protease 7, the pharmaceutical compositions thereof and their therapeutic applications” (Hybrigenics S.A., priority 2009, dated 2010)
pIC50: −log10 of the molar value.

Legend:
[1] = target: T1, UCH-L1 (Homo sapiens, UniProt P09936); assay: UCH-L1 activity assay (Ub-AMC); assay type: biochemical; conditions: 400 nM Ub-AMC, 2.5 nM enzyme; compounds tested from 200 µM to 91 nM; unit inferred; read-out: Inhibition of cysteine protease activities: Uch-L1
T1 sequence (P09936 1-223): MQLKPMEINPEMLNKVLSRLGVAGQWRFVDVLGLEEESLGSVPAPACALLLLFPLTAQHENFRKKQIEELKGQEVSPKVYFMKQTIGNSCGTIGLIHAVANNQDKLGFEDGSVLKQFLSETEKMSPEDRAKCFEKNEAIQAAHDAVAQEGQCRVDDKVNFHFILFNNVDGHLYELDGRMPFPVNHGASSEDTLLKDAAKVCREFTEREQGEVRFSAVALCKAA
Description: UCH-L1 was diluted in USP buffer (50 mM Tris HCl; 0.5 mM EDTA; 5 mM DTT; 0.01% Triton X-100; Bovine Serum Albumin 0.05 mg.ml^-1 pH7.6). Compounds stocks (100 mM) were stored at -20°C in DMSO. Compounds were tested at different concentrations: from 200 µM to 91 nM. Reactions were performed as duplicates in Black LJL 96 well plates (HE microplates; Molecular Devices; 20 µl final reaction volume). The substrate concentration for UCH-L1 was 400 nM Ub-AMC (Boston Biochem). The concentration of the enzyme (UCH-L1) in specificity assays was 2.5 nM. The concentrations were determined in order to perform specificity assays under initial velocities at fixed substrate concentration. Compounds were pre-incubated with enzymes for 30 minutes at 25°C. Reactions were initiated by addition of substrate to the plates containing the enzymes (+/- compounds) diluted in assay buffer. Reactions were incubated for 60 minutes at 37°C. Reactions were stopped by adding acetic acid (100 mM final). Readings were performed on a Pherastar Fluorescent Reader (BMG). λ […]. Data (mean values +/- standard deviation) were analyzed as % of control (no compound) and plotted as percentage versus the Log of the compound concentration using GraphPad (Prism). Data were fitted to a sigmoidal model (variable slope).

[2] = target: T2, Caspase 3 (Homo sapiens, UniProt P42574); assay: Caspase 3 activity assay (Ac-DEVD-AMC); assay type: biochemical; conditions: 250 nM Ac-DEVD-AMC, 1.6 nM enzyme; compounds tested from 200 µM to 91 nM; unit inferred; read-out: Inhibition of cysteine protease activities: Casp3
T2 sequence (P42574 29-175 limits assumed): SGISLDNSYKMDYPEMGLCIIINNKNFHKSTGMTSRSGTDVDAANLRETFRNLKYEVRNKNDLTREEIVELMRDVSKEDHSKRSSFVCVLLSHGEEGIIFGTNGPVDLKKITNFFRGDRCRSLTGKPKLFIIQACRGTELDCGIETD
T2 sequence (P42574 176-277 limits assumed): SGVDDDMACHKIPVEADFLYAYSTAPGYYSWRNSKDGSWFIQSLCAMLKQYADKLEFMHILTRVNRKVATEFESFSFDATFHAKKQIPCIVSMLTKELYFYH
Description: Caspase 3 was diluted in Caspase 3 buffer (100 mM Hepes pH 7.5; 10% sucrose; 0.1% CHAPS). Compounds stocks (100 mM) were stored at -20°C in DMSO. Compounds were tested at different concentrations: from 200 µM to 91 nM. Reactions were performed as duplicates in Black LJL 96 well plates (HE microplates; Molecular Devices; 20 µl final reaction volume). The substrate concentration for caspase 3 specificity assay was 250 nM (Ac-DEVD-AMC; Promega). The concentration of the enzyme (Caspase 3) in specificity assays was 1.6 nM. The concentrations were determined in order to perform specificity assays under initial velocities at fixed substrate concentration. Compounds were pre-incubated with enzymes for 30 minutes at 25°C. Reactions were initiated by addition of substrate to the plates containing the enzymes (+/- compounds) diluted in assay buffer. Reactions were incubated for 60 minutes at 37°C. Reactions were stopped by adding acetic acid (100 mM final). Readings were performed on a Pherastar Fluorescent Reader (BMG). λ Emission 380 nm; λ Excitation = 460 nm. Data (mean values +/- standard deviation) were analyzed as % of control (no compound) and plotted as percentage versus the Log of the compound concentration using GraphPad (Prism). Data were fitted to a sigmoidal model (variable slope).

| SMILES | pIC50 [1] | pIC50 [2] |
| --- | --- | --- |
| CC(=O)C1=C(O)C(=O)N(CCc2ccc(Cl)cc2)C1c1ccc(Br)cc1 (centres unmarked) [Example 25, 4-acetyl-5-(4-bromo-phenyl)-1-[2-(4-chloro-phenyl)-ethyl]-3-hydroxy-1,5-dihydro-pyrrol-2-one] | < 3.70 | < 3.70 |
| COc1cccc(CCN2C(=O)C(O)=C(C(C)=O)C2c2ccc(Br)cc2)c1 (centres unmarked) [Example 30, 4-acetyl-5-(4-bromo-phenyl)-3-hydroxy-1-[2-(3-methoxyphenyl)-ethyl]-1,5-dihydro-pyrrol-2-one] | < 3.70 | < 3.70 |
| COc1ccc(CCN2C(=O)C(O)=C(C(C)=O)C2c2ccc(Br)cc2)cc1 (centres unmarked) [Example 32, 4-acetyl-5-(4-bromo-phenyl)-3-hydroxy-1-[2-(4-methoxyphenyl)-ethyl]-1,5-dihydro-pyrrol-2-one] | < 3.70 | < 3.70 |
| CC(=O)C1=C(O)C(=O)N(CCc2ccc(F)cc2)C1c1ccc(Br)cc1 (centres unmarked) [Example 33, 4-acetyl-5-(4-bromo-phenyl)-3-hydroxy-1-[2-(4-fluorophenyl)-ethyl]-1,5-dihydro-pyrrol-2-one] | < 3.70 | < 3.70 |
| CCOc1ccc(CCN2C(=O)C(O)=C(C(C)=O)C2c2ccc(Br)cc2)cc1 (centres unmarked) [Example 34, 4-acetyl-5-(4-bromo-phenyl)-3-hydroxy-1-[2-(4-ethoxy-phenyl)-ethyl]-1,5-dihydro-pyrrol-2-one] | < 3.70 | < 3.70 |
| CC(=O)C1=C(O)C(=O)N(CCc2ccccc2)C1c1ccc(Br)c(Br)c1 (centres unmarked) [Example 41, 4-acetyl-5-(3,4-dibromo-phenyl)-3-hydroxy-1-phenethyl-1,5-dihydro-pyrrol-2-one] | < 3.70 | < 3.70 |
| CC(=O)C1=C(O)C(=O)N(CCc2ccccc2)C1c1cccnc1Cl (centres unmarked) [Example 42, 4-acetyl-5-(2-chloro-pyridin-3-yl)-3-hydroxy-1-phenethyl-1,5-dihydro-pyrrol-2-one] | < 3.70 | < 3.70 |
| CC(=O)C1=C(O)C(=O)N(CCc2ccc(Br)cc2)C1c1ccc(Cl)cc1 (centres unmarked) [Example 45, 4-Acetyl-5-(4-chlorophenyl)-1-[2-(4-bromophenyl)-ethyl]-3-hydroxy-1,5-dihydro-pyrrol-2-one] | < 3.70 | < 3.70 |

Further lines, results first:

| pIC50 [1] | pIC50 [2] | SMILES |
| --- | --- | --- |
| < 3.70 | < 3.70 | CC(=O)C1=C(O)C(=O)N(CCc2ccc(Br)cc2)C1c1ccc(Br)cc1 (centres unmarked) [Example 26, 4-acetyl-5-(4-bromo-phenyl)-1-[2-(4-bromo-phenyl)-ethyl]-3-hydroxy-1,5-dihydro-pyrrol-2-one] |
| < 3.70 | < 3.70 | CC(=O)C1=C(O)C(=O)N(CCc2ccc(Cl)c(Cl)c2)C1c1ccc(Br)cc1 (centres unmarked) [Example 28, 4-acetyl-5-(4-bromo-phenyl)-1-[2-(3,4-dichloro-phenyl)-ethyl]-3-hydroxy-1,5-dihydro-pyrrol-2-one] |
| < 3.70 | < 3.70 | CC(=O)C1=C(O)C(=O)N(CCc2ccccc2)C1c1ccc2c(c1)OCO2 (centres unmarked) [Example 37, 4-acetyl-5-benzo[1,3]dioxol-5-yl-3-hydroxy-1-phenethyl-1,5-dihydro-pyrrol-2-one] |
| < 3.70 | < 3.70 | CC(=O)C1=C(O)C(=O)N(CCc2ccc(Cl)cc2)C1c1ccc(Cl)cc1 (centres unmarked) [Example 46, 4-Acetyl-5-(4-chlorophenyl)-1-[2-(4-chlorophenyl)-ethyl]-3-hydroxy-1,5-dihydro-pyrrol-2-one] |
| < 3.70 | < 3.70 | CC(=O)C1=C(O)C(=O)N(CCc2ccc(Cl)cc2Cl)C1c1ccc(Br)cc1 (centres unmarked) [Example 47, 4-Acetyl-5-(4-bromophenyl)-1-[2-(2,4-dichlorophenyl)-ethyl]-3-hydroxy-1,5-dihydro-pyrrol-2-one] |
